Measurements as given in US9000045B2, “CETP activity inhibitors” (Japan Tobacco Inc., priority 1997, dated 2015).
pIC50: −log10 of the molar value.

Tests used:
CETP [1] = target: T1, CETP (Homo sapiens, UniProt P11597); assay: Ex vivo CETP activity inhibitory effect of plasma from transgenic mice; parameters: from tissue; host or cells: plasma of transgenic mice carrying the human CETP gene; settings: mouse, po, p.o., 6 hours after administration, transgenic mice with human CETP gene, read-out: CETP activity inhibitory rate in plasma from transgenic mouse
T1 sequence (P11597 18-493): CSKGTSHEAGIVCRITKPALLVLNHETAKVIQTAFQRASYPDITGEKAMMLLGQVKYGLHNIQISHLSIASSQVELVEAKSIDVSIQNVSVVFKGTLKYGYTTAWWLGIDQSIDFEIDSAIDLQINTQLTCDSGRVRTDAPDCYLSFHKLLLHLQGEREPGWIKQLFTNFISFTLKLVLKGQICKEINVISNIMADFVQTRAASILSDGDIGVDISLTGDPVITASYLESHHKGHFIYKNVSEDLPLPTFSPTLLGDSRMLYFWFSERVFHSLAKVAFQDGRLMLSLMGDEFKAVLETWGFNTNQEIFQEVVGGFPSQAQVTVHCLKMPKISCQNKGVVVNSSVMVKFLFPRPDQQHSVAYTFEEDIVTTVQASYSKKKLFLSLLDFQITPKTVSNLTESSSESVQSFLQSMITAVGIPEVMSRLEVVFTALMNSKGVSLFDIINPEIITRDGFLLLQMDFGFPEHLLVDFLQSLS
Protocol: Potassium bromide (KBr) was added to the plasma of healthy subjects (40 ml) to adjust specific gravity to d=1.125 g/ml. Density gradient centrifugation (227,000×g, 4° C., 17 hours) was conducted to obtain a fraction with specific gravity d>1.125 g/ml (HDL3 fraction). The fraction thus obtained was dialyzed against a PBS solution [10 mM Na2HPO4/10 mM NaH2PO4/0.15 M NaCl/1 mM EDTA (pH 7.4)]. Then, tritium-labeled cholesterol (10 nM) (50.3 Ci/mM) was dissolved in 95% ethanol and added gradually to the above HDL3 fraction under stirring. The solution was incubated for 18 hours at 37° C. [Tritium-labeled cholesterol was esterified by this procedure by the action of lecithin:cholesterol acyltransferase (LCAT) present on the surface of HDL3 and taken up into the interior of HDL3 as tritium-labeled cholesterylester ([^3H]CE)]. After incubation, KBr was added and specific gravity was adjusted to d=1.21 g/ml. Density gradient centrifugation (227,000×g, 4° C., 17 hours) was conducted and the fraction with d<1.21 g/ml was harvested. The fraction thus obtained was dialyzed against the above PBS solution to obtain HDL3 that took up [^3H]CE ([^3H]CE-HDL3, specific gravity: 1.125<d<1.21, specific activity: 101,000 dpm/nM), which served as donor lipoprotein.
Physiological saline (specific gravity d=1.006 g/ml) was layered upon the plasma of healthy subjects (100 ml). Density gradient centrifugation (227,000×g, 4° C., 4 hours) was conducted and the fraction with specific gravity d>1.006 g/ml was harvested. KBr was added to the fraction thus obtained to adjust specific gravity to d=1.063 g/ml and density gradient centrifugation (227,000×g, 4° C., 20 hours) was conducted to harvest the fraction with specific gravity […]. The thus-obtained fraction was dialyzed against the above PBS solution to obtain fractions containing IDL and LDL (specific gravity: 1.006<d<1.063), which served as acceptor lipoprotein.
Samples were suspended in a 0.5% methylcellulose solution and administered orally using a plastic probe to transgenic mice having introduced human CETP gene (hereafter referred to as mice; prepared using the method described in Japanese Patent Application No. Hei 8-130660), which had been fasted overnight. Blood was collected before administration, and 6 hours after administration CETP activity in the plasma was determined using the following method.
Donor lipoprotein ([^3H]CE-HDL3, containing 0.21 μg cholesterol) obtained in the above (1), acceptor lipoprotein obtained in the above (2) (containing 21 μg of cholesterol), and 0.9 μl of mice plasma were added to microtubes. A total volume was adjusted to 600 μl/tube with a TBS solution [10 mM Tris/0.15 M NaCl (pH 7.4)]. The microtubes were incubated for 15 hours at 37° C. or 4° C. Then, an ice-cooled TBS solution (400 μl/tube) and a 0.3% dextran sulfate solution (100 μl/tube) containing 0.15 M magnesium chloride were added to the microtubes and mixed well. After allowing the microtubes to stand for 30 minutes at 4° C., centrifugation (8,000 rpm, 4° C., 10 minutes) was carried out and radioactivity of the resulting supernatant (HDL fraction) was determined with a scintillation counter.

CETP [2] = target: T1, CETP; assay: In vitro CETP activity inhibitory effect in whole plasma; type: biochemical; parameters: Plasma containing [^3H]CE-HDL3 (600,000 dpm/ml) was prepared by adding donor lipoprotein obtained in the above (1) to plasma from healthy subjects; from tissue; host or cells: whole plasma of healthy subjects; settings: plasma from healthy subjects containing [3H]CE-HDL3, incubated 4 hours at 37° C.; read-out: CETP activity inhibition in whole plasma IC50
Method in brief: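 HDL3 was labelled with tritiated cholesterol (10 nM) for 18 h at 37° C in PBS with EDTA (pH 7.4). Test samples were in 1:1 N-methylpyrrolidone/PEG 400 and assayed in whole plasma. IC50 was calculated from % inhibition of CETP activity.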

Compound | inhibition at 10 mg/kg (CETP [1]; 10 mg/kg) [%] | inhibition at 30 mg/kg (CETP [1]) [%] | pIC50 (CETP [2])
CC(C)CCC1(C(=O)Nc2cc(F)ccc2SC(=O)C(C)(C)C)CCCCC1 [Example 79] | 14 | 26 | 4.22
CC(C)CCC1(C(=O)Nc2cc(F)c(F)cc2SC(=O)C(C)(C)C)CCCCC1 [Example 80] |  | 12 | 5.22
CC(C)CCC1(C(=O)Nc2ccc(F)cc2SC(=O)C(C)(C)C)CCCCC1 [Example 81] |  | 10 | 4.68
